Reference: EP0779296A2, “D-alpha-aminoalkanoyl-(S)-N-alpha-alkylbenzyl amides useful as intermediates for artificial sweeteners” (THE COCA-COLA COMPANY, priority 1992, dated 1994)
Where a SMILES comes first, the peptide text is derived from it.

Columns and labels:
[1] = reported in U.S. Patent No. 4,411,925; cited from earlier work
[2] = disclosed by Zeng et al.; cited from earlier work
[3] = Sweetness potency: four tasters compare dilutions of the test compound with a 200 ppm aspartame solution; assay type: in vivo; details: against 200 ppm aspartame solution, aspartame taken as 180 times sucrose
Protocol: The sweetness potency was determined by having four tasters compare the sweetness of various dilutions of the test compound with a 200 ppm equivalent solution of aspartame, wherein the sweetness of aspartame was taken to be 180 times sucrose. […]

[4] = value adopted for the reference solution; cited from earlier work

Row | Structure (SMILES) | Sweetness [3] | further results
1 | C[C@@H](NC(=O)[C@@H](N)CC(=O)O)C(=O)NC(C1CC1)C(C)(C)C (mixture of isomers) [L-aspartyl-D-alanine amide of (+/-) t-butyl-cyclopropyl methylamine] |  | sweetness potency (SP) [1]: 1200 times sucrose
2 | Cc1cccc(C)c1NC(=O)[C@@H](C)NC(=O)[C@@H](N)CC(=O)O [2,6-dimethyl-aniline amide] |  | sweetness potency [2]: 500 times the sweetness of sucrose
3 | C[C@H](NC(=O)[C@@H](C)NC(=O)[C@@H](N)CC(=O)O)c1ccccc1 [Example 2, L-aspartyl-D-alanine-N-(S)-α-methyl-benzylamide] | 180 times sucrose | 
4 | CC[C@@H](NC(=O)[C@@H](N)CC(=O)O)C(=O)N[C@@H](C)c1ccccc1 [Example 3, L-aspartyl-D-α-aminobutyric-acid N-(S)-α-methylbenzyl amide] | 360 times sucrose | 
5 | CCC[C@@H](NC(=O)[C@@H](N)CC(=O)O)C(=O)N[C@@H](C)c1ccccc1 [Example 4, L-aspartyl-D-α-aminopentanoic-acid-N-(S)-α-methylbenzyl amide] | 90 times sucrose | 
6 | CC(C)[C@@H](NC(=O)[C@@H](N)CC(=O)O)C(=O)N[C@@H](C)c1ccccc1 [Example 5, L-aspartyl-D-valine-N-(S)-α-methylbenzyl amide] | 540 times sucrose | 
7 | C[C@H](NC(=O)[C@H](NC(=O)[C@@H](N)CC(=O)O)c1ccccc1)c1ccccc1 [Example 6, L-aspartyl-D-phenylglycine-N-(S)-α-methylbenzyl amide] | 270 times sucrose | 
8 | C[C@@H](NC(=O)[C@@H](N)CC(=O)O)C(=O)N[C@H](C)c1ccccc1 [Example 7, L-aspartyl-D-alanine-N-(R)-α-methylbenzyl amide] | less than 10 times sucrose | 
9 | CCC(NC(=O)[C@@H](C)NC(=O)[C@@H](N)CC(=O)O)c1ccccc1 (stereo partly drawn) [Example 8, L-aspartyl-D-alanine-N-(R,S)-α-ethylbenzyl amide] | 270 times sucrose | 
10 | CC(C)C(NC(=O)[C@@H](C)NC(=O)[C@@H](N)CC(=O)O)c1ccccc1 (stereo partly drawn) [Example 9, L-aspartyl-D-alanine-N-(R,S)-α-isopropylbenzyl amide] | 180 times sucrose | 
11 | C[C@@H](NC(=O)[C@@H](N)CC(=O)O)C(=O)NC(c1ccccc1)C(C)(C)C (stereo partly drawn) [Example 10, L-aspartyl-D-alanine-N-(R,S)-α-t-butylbenzyl amide] | 150 times sucrose | 
12 | CCCC(NC(=O)[C@@H](C)NC(=O)[C@@H](N)CC(=O)O)c1ccccc1 (stereo partly drawn) [Example 11, L-aspartyl-D-alanine-N-(R,S)-α-n-propylbenzyl amide] | 90 times sucrose | 
13 | C[C@@H](NC(=O)[C@@H](N)CC(=O)O)C(=O)NC(c1ccccc1)c1ccccc1 [Example 12, L-aspartyl-D-alanine-N-α-phenyl benzyl amide] | 180 times sucrose | 
14 | C[C@@H](NC(=O)[C@@H](N)CC(=O)O)C(=O)NC(c1ccccc1)C1CC1 (stereo partly drawn) [Example 13, L-aspartyl-D-alanine-N-α-cyclopropyl benzyl amide] | 1,080 times sucrose | 
15 | CC[C@H](NC(=O)[C@@H](CC)NC(=O)[C@@H](N)CC(=O)O)c1ccccc1 [Example 14, L-aspartyl-D-α-aminobutyric acid-N-(S)-α-ethylbenzyl amide] | 2500 x Sucrose | Sweetness ([3]; listed as L-aspartyl-D-α-aminobutyric-acid-(S)-N-α-alkylbenzyl amide): 2500 times sucrose
16 | CC[C@H](NC(=O)[C@H](NC(=O)[C@@H](N)CC(=O)O)C(C)C)c1ccccc1 [Example 15, L-aspartyl-D-valine-N-(S)-α-ethylbenzyl amide] | 1500 times sucrose | 
17 | CC[C@@H](NC(=O)[C@@H](N)CC(=O)O)C(=O)NC(C1CC1)C1CC1 [R = ethyl] |  | sweetness potency (SP) [1]: 500 times sucrose
18 | CC(C)[C@@H](NC(=O)[C@@H](N)CC(=O)O)C(=O)NC(C1CC1)C1CC1 [R = isopropyl] |  | sweetness potency (SP) [1]: 110 times sucrose
19 | C[C@@H](NC(=O)[C@@H](N)CC(=O)O)C(=O)NC(C1CC1)C1CC1 [R = methyl] |  | sweetness potency (SP) [1]: 1200 times sucrose
20 | COC(=O)[C@H](Cc1ccccc1)NC(=O)[C@@H](N)CC(=O)O [aspartame] (H-Asp-Phe-OMe) |  | sweetness of aspartame (adopted reference value) [4]: 180 times sucrose
